Our source for the inhibition values is publication PMC6934184, “Selective DNA-PKcs inhibition extends the therapeutic index of localized radiotherapy and chemotherapy” (The Journal of Clinical Investigation, 2019).

SMILES strings stand for the structures.

This assay addresses T1, STK39 (STLK3) (Homo sapiens, UniProt Q9UEW8).
T1 construct: purchased Thermo Fisher Scientific (Life Technologies) SelectScreen
Put plainly: SelectScreen LanthaScreen. The following applies: read-out: % displacement. The class given is binding. In a few lines: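 NU5455 was profiled across the SelectScreen Broad panel of kinase activity and binding assays. Z'LYTE reactions such as CSF1R ran at apparent Km ATP, while the Adapta CAMK1 assay used ATP listed as 10. Values are given as percent.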
(In TR-FRET formats the signal depends on donor and acceptor labels being close together.)

As to `CN(C(=O)CN1CCOCC1)c1ccc2sc3c(-c4cccc5c(=O)cc(N6CC7CCC(C6)O7)oc45)cccc3c2c1` [NU5455], the inhibition at 1 µM amounted to 16.2%.
